The source of these data is patent US20170275270A1, “BENZYL SUBSTITUTED INDAZOLES” (Bayer Pharma Aktiengesellschaft, priority 2014, published 2017).

Counter-ions that a name gives are not always drawn. Like-named read-outs stand apart in the source and are kept apart here. A value given as a limit tells only on which side of the number the result lay.

In one assay the test system is HeLa. Briefly: Proliferation assay (HeLa cell line).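 Note: crystal violet staining of cell number, scaled between a plate stained before dosing (0%) and cells left untreated (100%), compounds tested at 0.001-10 µM, IC50 via 4-parameter fit.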
The target in assay [1] is T1, catalytic domain of human Bub1 (amino acids 704-1085) (Homo sapiens, UniProt O43683).
T1 construct: catalytic domain of human Bub1 (amino acids 704-1085); His6 (N); made in house; host or cells: Hi5 insect cells
T1 sequence (O43683 704-1085): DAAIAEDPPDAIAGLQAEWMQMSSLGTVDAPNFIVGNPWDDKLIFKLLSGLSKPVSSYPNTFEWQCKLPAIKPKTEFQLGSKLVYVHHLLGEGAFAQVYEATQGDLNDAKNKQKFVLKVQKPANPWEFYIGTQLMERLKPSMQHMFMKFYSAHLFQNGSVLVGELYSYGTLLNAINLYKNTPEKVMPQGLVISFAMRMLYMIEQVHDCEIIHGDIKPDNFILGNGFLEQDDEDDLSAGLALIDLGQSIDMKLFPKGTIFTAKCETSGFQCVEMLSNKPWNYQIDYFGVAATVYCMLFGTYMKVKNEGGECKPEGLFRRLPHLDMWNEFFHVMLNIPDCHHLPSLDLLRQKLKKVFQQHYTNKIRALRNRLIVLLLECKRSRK
Briefly: Bub1 kinase assay (TR-FRET). The assay is classed as biochemical. The method in brief:
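TR-FRET read-out (Eu-anti-mouse IgG/anti-phosphoserine antibody to streptavidin-XL665 on biotinylated peptide) after EDTA stop and 1 h complex formation at 22° C. Kinase reaction ran 60 min at 22° C with 1:3.4 serial dilutions from 2 mM DMSO stocks. IC50 from 4-parameter logistic fit of normalized inhibition.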
(In general: TR-FRET usually uses a lanthanide donor and a delayed reading to cut background.)

For assay [2], the system named is HeLa human cervical tumor cells. Put plainly: Proliferation assay (HeLa+Paclitaxel).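 Note: compounds at 0.001-10 µM added 4 h after paclitaxel, 92 h exposure, absorbance normalized to zero-point plate (0%) and untreated cells (100%), IC50 from 4-parameter fit.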 Particulars: read-out: Biological Assay 3: HeLa + Paclitaxel IC50, 3 nM paclitaxel, crystal violet.
A further assay deals with Bub1 (Homo sapiens, UniProt O43683). Put plainly: Formation-Assay: phosphorylation status of histone 2A by inhibition of kinase activity of Bub1. In kind it is cell-based. Particulars: 16 h. The method in brief: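 Cells co-treated 16 h with Nocodazole (1 μg/ml) and compound (3 nM–10 μM), then fixed and immunostained for phospho-H2A, read by infrared imaging (800 nm) normalised to cell stain (700 nm). Nocodazole-only set as 100%, untreated cells as 0%.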
Chain of Bub1 (O43683 whole entry): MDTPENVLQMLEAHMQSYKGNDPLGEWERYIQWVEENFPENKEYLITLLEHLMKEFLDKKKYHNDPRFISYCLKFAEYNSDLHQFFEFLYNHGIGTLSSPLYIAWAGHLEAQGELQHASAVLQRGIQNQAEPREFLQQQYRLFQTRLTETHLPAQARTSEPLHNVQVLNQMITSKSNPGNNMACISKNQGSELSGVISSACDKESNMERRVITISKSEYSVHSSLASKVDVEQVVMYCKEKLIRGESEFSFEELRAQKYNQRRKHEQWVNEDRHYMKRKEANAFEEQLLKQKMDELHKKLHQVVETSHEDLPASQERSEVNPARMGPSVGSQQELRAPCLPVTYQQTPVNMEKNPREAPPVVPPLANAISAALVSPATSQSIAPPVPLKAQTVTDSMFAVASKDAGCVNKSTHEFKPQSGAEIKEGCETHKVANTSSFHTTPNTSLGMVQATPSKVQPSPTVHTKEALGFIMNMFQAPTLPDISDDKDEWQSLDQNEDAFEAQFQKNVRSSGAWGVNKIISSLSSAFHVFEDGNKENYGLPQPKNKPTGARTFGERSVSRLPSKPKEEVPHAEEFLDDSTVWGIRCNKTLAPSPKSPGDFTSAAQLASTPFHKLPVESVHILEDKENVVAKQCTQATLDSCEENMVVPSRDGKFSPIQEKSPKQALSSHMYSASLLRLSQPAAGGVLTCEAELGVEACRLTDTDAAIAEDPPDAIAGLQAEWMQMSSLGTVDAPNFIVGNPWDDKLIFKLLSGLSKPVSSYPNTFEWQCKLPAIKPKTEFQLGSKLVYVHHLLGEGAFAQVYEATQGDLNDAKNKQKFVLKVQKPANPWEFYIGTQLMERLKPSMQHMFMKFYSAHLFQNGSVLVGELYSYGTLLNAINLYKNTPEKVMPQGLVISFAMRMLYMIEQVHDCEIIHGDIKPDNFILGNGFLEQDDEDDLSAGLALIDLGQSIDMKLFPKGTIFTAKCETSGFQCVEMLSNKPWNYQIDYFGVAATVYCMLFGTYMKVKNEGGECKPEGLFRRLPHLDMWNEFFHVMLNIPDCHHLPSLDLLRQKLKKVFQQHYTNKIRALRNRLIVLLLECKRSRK

Setting [3] is: Homo sapiens, 96 h, read-out: Biological Assay 2: Proliferation assay (HeLa cell line) median IC50.
The mark [4] stands for this setting: 10 μM ATP, read-out: Biological Assay 1: Bub1 kinase assay median IC50.
Where [5] appears, read: Biological Assay 4.1: H2A Formation IC50, co-treatment with Nocodazole 1 μg/ml.
[6] abbreviates: Biological Assay 1: Bub1 kinase assay median IC50, 10 μM ATP.

As for `CCOc1cc(F)c(Cn2nc(-c3nc(C)c(F)c(Nc4ccncc4)n3)c3ccccc32)c(F)c1` [Example 2-12-5, 2-[1-(4-ethoxy-2,6-difluorobenzyl)-1H-indazol-3-yl]-5-fluoro-6-methyl-N-(pyridin-4-yl)pyrimidin-4-amine], the IC50 in the assay on HeLa (setting [3]) came out at 1300 nM; in assay [1] (setting [4]) it was 6.5 nM; in assay [2], 920 nM; at Bub1 (setting [5]), 390 nM.

Take `CCOc1cc(F)c(Cn2nc(-c3ncc(CCCO)c(Nc4ccncc4)n3)c3ccccc32)c(F)c1` [Example 2-13-1, 3-{2-[1-(4-ethoxy-2,6-difluorobenzyl)-1H-indazol-3-yl]-4-(pyridin-4-ylamino)pyrimidin-5-yl}propan-1-ol]: the IC50 amounted to 3700 nM in the assay on HeLa (setting [3]), 5.3 nM in assay [1] (setting [6]), 370 nM in assay [2] and 8.2 nM on Bub1 (setting [5]).

Turning to “2-{3,5-difluoro-4-[(3-{5-[2-(methylsulfonyl)ethyl]-4-(eparate-4-ylamino)pyrimidin-2-yl}-1H-indazol-1-yl)methyl]phenoxy}ethanol [Example 2-4-1]”, the IC50 in the assay with HeLa (read-out: Biological Assay 2: Proliferation assay (HeLa cell line) median IC50, 4 days, crystal violet) was more than 10000 nM; in assay [1] (setting [4]) it was 12 nM; in assay [2], 3600 nM; at Bub1 (co-treatment with Nocodazole 1 μg/ml, read-out: Biological Assay 4.1: H2A Formation IC50) it was 96 nM.

For `CCOc1cc(F)c(Cn2nc(-c3ncc(CCN4CCCC(F)(F)C4)c(Nc4ccncc4)n3)c3ccccc32)c(F)c1` [Example 2-2-16, 5-[2-(3,3-difluoropiperidin-1-yl)ethyl]-2-[1-(4-ethoxy-2,6-difluorobenzyl)-1H-indazol-3-yl]-N-(pyridin-4-yl)pyrimidin-4-amine], the IC50 is 6900 nM in the assay on HeLa (setting [3]), 15 nM in assay [1] (setting [6]), 230 nM in assay [2] and 1900 nM on Bub1 (setting [5]).

Regarding `CCOc1cc(F)c(Cn2nc(-c3nc4c(c(Nc5ccnc(C)n5)n3)CC(C)(C)CC4)c3ccccc32)c(F)c1` [Example 2-12-66, 2-[1-(4-ethoxy-2,6-difluorobenzyl)-1H-indazol-3-yl]-6,6-dimethyl-N-(2-methylpyrimidin-4-yl)-5,6,7,8-tetrahydroquinazolin-4-amine], the IC50 in the assay with HeLa (setting [3]) is more than 10000 nM; in assay [1] (setting [4]), 98 nM; in assay [2] it was 100 nM; on Bub1 (setting [5]) it was 22 nM.

`CCOc1cc(F)c(Cn2nc(-c3ncc(CCN)c(Nc4ccnc(C(F)(F)F)c4)n3)c3ccccc32)c(F)c1` [Example 2-9-11, 5-(2-aminoethyl)-2-[1-(4-ethoxy-2,6-difluorobenzyl)-1H-indazol-3-yl]-N-[2-(trifluorometh-yl)pyridin-4-yl]pyrimidin-4-amine, salt with hydrochloric acid]: the IC50 in the assay with HeLa (setting [3]) turned out to be 1100 nM; in assay [1] (setting [4]), 360 nM; in assay [2], 110 nM; at Bub1 (setting [5]), 2.8 nM.

Regarding `CCOc1cc(F)c(Cn2nc(-c3ncc(CN)c(Nc4ccnc(C(F)F)c4)n3)c3ccccc32)c(F)c1` [Example 2-9-6, 5-(aminomethyl)-N-[2-(difluoro-methyl)pyridin-4-yl]-2-[1-(4-ethoxy-2,6-difluorobenzyl)-1H-indazol-3-yl]pyrimidin-4-amine, salt with hydrochloric acid], the IC50 turned out to be 3700 nM in the assay with HeLa (setting [3]), 90 nM in assay [1] (setting [4]), 260 nM in assay [2] and 2.9 nM on Bub1 (setting [5]).

As for `CCOc1cc(F)c(Cn2nc(-c3nc(CC)cc(Nc4ccncc4)n3)c3ccccc32)c(F)c1` [Example 2-12-9, 2-[1-(4-ethoxy-2,6-difluorobenzyl)-1H-indazol-3-yl]-6-ethyl-N-(pyridin-4-yl)pyrimidin-4-amine], the IC50 with HeLa (setting [3]) turned out to be 3700 nM; in assay [1] (setting [6]), 21 nM; in assay [2] it was 540 nM; at Bub1 (setting [5]), 11 nM.

Regarding `CCOc1cc(F)c(Cn2nc(-c3ncc(CC4CNC4)c(Nc4ccnc(C(F)(F)F)c4)n3)c3ccccc32)c(F)c1` [Example 2-9-8], the IC50 in the assay with HeLa (setting [3]) was found to be 1800 nM; in assay [1] (setting [4]) it was 440 nM; in assay [2], 220 nM; on Bub1 (setting [5]), 14 nM.

Turning to `CCOc1cc(F)c(Cn2nc(-c3nc4c(c(Nc5cnnc(Cl)c5)n3)CCC4)c3ccccc32)c(F)c1` [Example 2-12-53, N-(6-chloropyridazin-4-yl)-2-[1-(4-ethoxy-2,6-difluorobenzyl)-1H-indazol-3-yl]-6,7-dihydro-5H-cyclopenta[d]pyrimidin-4-amine], the IC50 with HeLa (setting [3]) was more than 10000 nM; in assay [1] (setting [4]), 660 nM; in assay [2], 510 nM; at Bub1 (setting [5]), 140 nM.

Turning to `Cc1nccc(Nc2nc(-c3nn(Cc4c(F)cc(OCCO)cc4F)c4ccccc34)ncc2C2CCN(CC3CC3)CC2)n1` [Example 2-6-23, 2-{4-[(3-{5-[1-(cyclopropyl-methyl)piperidin-4-yl]-4-[(2-methylpyrimidin-4-yl)amino]pyrimidin-2-yl}-1H-indazol-1-yl)methyl]-3,5-difluorophenoxy} ethanol], the IC50 is 3000 nM with HeLa (setting [3]), 82 nM in assay [1] (setting [6]), 64 nM in assay [2] and 12 nM at Bub1 (setting [5]).

On to `CCOc1cc(F)c(Cn2nc(-c3nc4c(c(Nc5ccnc(C)n5)n3)CCC4)c3ccccc32)c(F)c1` [Example 2-12-54, 2-[1-(4-ethoxy-2,6-difluorobenzyl)-1H-indazol-3-yl]-N-(2-methylpyrimidin-4-yl)-6,7-dihydro-5H-cyclopenta[d]pyrimidin-4-amine], for which the IC50 with HeLa (setting [3]) was 3300 nM; in assay [1] (setting [6]), 31 nM; in assay [2], 180 nM; on Bub1 (setting [5]) it was 14 nM.

For the compound `CCOc1cc(F)c(Cn2nc(-c3nc4c(c(Nc5ccncc5)n3)CSC4)c3ccccc32)c(F)c1` [Example 2-19-1, 2-[1-(4-ethoxy-2,6-difluorobenzyl)-1H-indazol-3-yl]-N-(pyridin-4-yl)-5,7-dihydrothieno[3,4-d]pyrimidin-4-amine], the IC50 in the assay on HeLa (setting [3]) turned out to be 1200 nM; in assay [1] (setting [4]), 14 nM; in assay [2], 350 nM; at Bub1 (setting [5]), 350 nM.

On to `CCOc1cc(F)c(Cn2nc(-c3nc(CC)cc(Nc4ccnc(NC(C)=O)c4)n3)c3ccccc32)c(F)c1` [Example 2-12-22, N-[4-({2-[1-(4-ethoxy-2,6-difluorobenzyl)-1H-indazol-3-yl]-6-ethylpyrimidin-4-yl}amino)pyridin-2-yl]acetamide], for which the IC50 stood at 1200 nM with HeLa (setting [3]), 9.3 nM in assay [1] (setting [6]), 750 nM in assay [2] and 35 nM on Bub1 (setting [5]).

`CCOc1cc(F)c(Cn2nc(-c3nc4c(c(Nc5ncncn5)n3)CCC4)c3ccccc32)c(F)c1` [Example 2-12-52, 2-[1-(4-ethoxy-2,6-difluorobenzyl)-1H-indazol-3-yl]-N-(1,3,5-triazin-2-yl)-6,7-dihydro-5H-cyclopenta[d]pyrimidin-4-amine]: the IC50 came to 1100 nM in the assay with HeLa (setting [3]), 100 nM in assay [1] (setting [4]), 990 nM in assay [2] and 25 nM at Bub1 (setting [5]).

For the compound `CCOc1cc(F)c(Cn2nc(-c3ncc(OCCO)c(Nc4ccncc4)n3)c3ccccc32)c(F)c1` [Example 3-1-1, 2-({2-[1-(4-ethoxy-2,6-difluorobenzyl)-1H-indazol-3-yl]-4-(pyridin-4-ylamino)pyrimidin-5-yl}oxy)ethanol, reference compound], the IC50 amounted to 1500 nM in the assay on HeLa (setting [3]), 11 nM in assay [1] (setting [6]), 1400 nM in assay [2] and 1100 nM on Bub1 (setting [5]).

Consider `CCOc1cc(F)c(Cn2nc(-c3ncc(C4CCN(CC(F)(F)F)CC4)c(Nc4cc(C)ncc4C)n3)c3ccccc32)c(F)c1` [Example 2-20-6, N-(2,5-dimethylpyridin-4-yl)-2-[1-(4-ethoxy-2,6-difluorobenzyl)-1H-indazol-3-yl]-5-[1-(2,2,2-trifluoroethyl)piperidin-4-yl]pyrimidin-4-amine], for which the IC50 in the assay with HeLa (setting [3]) stood at 3200 nM; in assay [1] (setting [6]), 260 nM; in assay [2], 130 nM; on Bub1 (setting [5]) it was 81 nM.

For the compound `CCOc1cc(F)c(Cn2nc(-c3ncc(CCN)c(Nc4ccncc4)n3)c3ccccc32)c(F)c1` [Example 2-9-2, 5-(2-aminoethyl)-2-[1-(4-ethoxy-2,6-difluorobenzyl)-1H-indazol-3-yl]-N-(pyridin-4-yl)pyrimidin-4-amine], the IC50 with HeLa (setting [3]) turned out to be 1100 nM; in assay [1] (setting [4]) it was 8.8 nM; in assay [2], 360 nM; on Bub1 (setting [5]) it was 1600 nM.
